Molecular target: T1, Amine oxidase [flavin-containing] A (Bos taurus, UniProt P21398)
T1 sequence (P21398 whole entry): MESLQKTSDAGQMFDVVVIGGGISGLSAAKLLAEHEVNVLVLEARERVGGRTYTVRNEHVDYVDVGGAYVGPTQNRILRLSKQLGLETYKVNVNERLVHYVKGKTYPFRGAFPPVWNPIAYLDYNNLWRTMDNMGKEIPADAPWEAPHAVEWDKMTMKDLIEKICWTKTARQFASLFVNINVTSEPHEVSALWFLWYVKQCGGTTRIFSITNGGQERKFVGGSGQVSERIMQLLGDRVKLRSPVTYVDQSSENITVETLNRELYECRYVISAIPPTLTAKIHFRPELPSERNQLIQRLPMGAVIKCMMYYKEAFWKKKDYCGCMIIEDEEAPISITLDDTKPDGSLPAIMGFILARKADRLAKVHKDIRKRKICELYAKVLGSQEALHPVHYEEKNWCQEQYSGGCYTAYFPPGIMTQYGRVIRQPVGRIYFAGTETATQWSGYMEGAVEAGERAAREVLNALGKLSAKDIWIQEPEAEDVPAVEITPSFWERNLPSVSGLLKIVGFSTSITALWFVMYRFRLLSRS
Assay: Inhibition of bovine brain mitochondria MAOA

Compound	Ki
Cc1csc(N/N=C/c2ccc(Cl)cc2Cl)n1	0.012 µM
Cc1csc(N/N=C/c2ccc(Cl)cc2)n1	0.038 µM
COc1ccc(/C=N/Nc2nc(-c3ccccc3)cs2)cc1	0.0501 µM
COc1ccc(/C=N/Nc2nc(C)cs2)cc1OC	0.0132 µM
COc1ccc(/C=N/Nc2nc(-c3ccccc3)cs2)cc1OC	0.0302 µM

Continued by falling Ki, values first:

Ki	Compound
1.2 µM	C(=N\Nc1nc(-c2ccccc2)cs1)/c1ccccc1
0.1 µM	Clc1ccc(/C=N/Nc2nc(-c3ccccc3)cs2)cc1
0.0933 µM	Clc1ccc(/C=N/Nc2nc(-c3ccccc3)cs2)c(Cl)c1
0.0355 µM	Cc1csc(N/N=C/c2ccccc2C)n1
0.0191 µM	COc1ccc(/C=N/Nc2nc(C)cs2)cc1
0.00724 µM	Cc1csc(N/N=C/c2ccccc2)n1
